The values below come from US11472815B2, “1,4-diphenyl-1H-imidazole and 2,4-diphenylthiazole derivatives and preparation method therefor and use thereof” (SOUTHERN MEDICAL UNIVERSITY, priority 2018, dated 2022).

One may read the EC50 as the concentration that produces a half-maximal response. Read a high EC50 as weaker potency.

Chain of TLR1/2 (Q15399 25-786): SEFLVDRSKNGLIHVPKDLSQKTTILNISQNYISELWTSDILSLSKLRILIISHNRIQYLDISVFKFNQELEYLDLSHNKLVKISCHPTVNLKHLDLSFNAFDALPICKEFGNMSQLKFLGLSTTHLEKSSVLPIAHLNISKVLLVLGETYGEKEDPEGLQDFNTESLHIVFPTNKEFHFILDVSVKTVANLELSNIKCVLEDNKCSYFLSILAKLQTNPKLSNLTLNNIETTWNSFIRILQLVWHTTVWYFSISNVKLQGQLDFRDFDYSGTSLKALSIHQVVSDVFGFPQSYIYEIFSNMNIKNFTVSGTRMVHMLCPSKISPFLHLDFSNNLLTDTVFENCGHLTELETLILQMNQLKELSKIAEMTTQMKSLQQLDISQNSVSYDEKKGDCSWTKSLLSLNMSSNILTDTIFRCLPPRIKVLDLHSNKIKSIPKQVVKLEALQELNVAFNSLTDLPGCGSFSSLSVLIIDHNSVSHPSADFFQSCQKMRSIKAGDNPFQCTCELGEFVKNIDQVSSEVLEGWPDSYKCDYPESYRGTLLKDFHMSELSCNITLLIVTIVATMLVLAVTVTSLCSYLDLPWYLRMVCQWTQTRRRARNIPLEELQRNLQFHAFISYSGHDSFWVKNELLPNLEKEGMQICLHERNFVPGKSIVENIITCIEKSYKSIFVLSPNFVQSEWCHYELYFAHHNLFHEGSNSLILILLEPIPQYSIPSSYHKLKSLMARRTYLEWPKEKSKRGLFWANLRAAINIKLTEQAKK
Chain of TLR1/2 (O60603 19-784): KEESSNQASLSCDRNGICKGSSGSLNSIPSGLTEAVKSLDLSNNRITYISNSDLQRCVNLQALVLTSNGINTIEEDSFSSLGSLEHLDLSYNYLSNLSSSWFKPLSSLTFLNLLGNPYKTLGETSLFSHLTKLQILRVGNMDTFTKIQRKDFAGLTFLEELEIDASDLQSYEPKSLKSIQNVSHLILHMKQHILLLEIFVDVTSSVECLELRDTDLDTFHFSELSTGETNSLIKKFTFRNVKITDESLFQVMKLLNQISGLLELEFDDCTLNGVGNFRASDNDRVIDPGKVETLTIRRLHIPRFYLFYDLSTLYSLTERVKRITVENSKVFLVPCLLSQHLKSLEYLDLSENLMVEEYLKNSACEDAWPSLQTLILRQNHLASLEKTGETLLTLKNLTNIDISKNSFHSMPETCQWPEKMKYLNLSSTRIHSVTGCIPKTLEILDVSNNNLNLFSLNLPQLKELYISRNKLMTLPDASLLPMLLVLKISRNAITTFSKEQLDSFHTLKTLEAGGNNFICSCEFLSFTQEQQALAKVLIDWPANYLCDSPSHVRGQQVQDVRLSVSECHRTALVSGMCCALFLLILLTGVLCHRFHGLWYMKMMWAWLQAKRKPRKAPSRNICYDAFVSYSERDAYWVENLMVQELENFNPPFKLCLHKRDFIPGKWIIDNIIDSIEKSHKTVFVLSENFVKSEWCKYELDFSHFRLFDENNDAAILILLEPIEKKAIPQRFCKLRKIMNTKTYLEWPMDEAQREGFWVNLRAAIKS

The first assay addresses TLR1/2 (Homo sapiens (Human), UniProt O60603+Q15399). The assay can be described thus: Detection of TLR1/2 activation activity (SEAP signal) using TLR1/2 HEK BLUE cells. The assay is classed as cell-based.
Settings: not given
As for the experimental part:
TLR1/2 activation activity was detected using TLR1/2 HEK BLUE cells. TLR1/2 HEK BLUE cells were cultured in DMEM medium containing 10% fetal bovine serum, 1% penicillin and streptomycin, and incubated in a 37° C. cell incubator containing 5% CO2.
HEK BLUE TLR1/2 cells were spread in a 384-well plate at 20,000 cells/well, cultured at 37° C., 5% CO2 for 24 hours, 25 μL per well. When the cells grew well, 100 μM compound and doubling-diluted for 11 concentration gradients. After the cells were kept for 24 hours in the CO2 incubator, 40 μL of indigo blue solution was added to each well of the plate in the dark, and reading was conducted 4 times in an interval of 15 minutes at 620 nm to detect the signal intensity of SEAP in the cell supernatant.
As to `CNc1ccc([N+](=O)[O-])cc1-n1cnc(-c2ccc(C(F)(F)F)cc2O)c1` [Compound 22, 2-(1-(2-(methylamino)-5-nitrophenyl)-1H-imidazol-4-yl)-5-(trifluoromethyl)phenol], the “TLR1/2 activation (in words)” value is listed as “activates TLR1/2 activity in a concentration-dependent manner”.

Still in this assay, the particulars now being: HEK BLUE TLR1/2 cells, 24 hours, SEAP read at 620 nm; highest concentration 100 μM; [‡] highest SEAP signal less than 50% of the activation value of compound 22.
On to `FC(F)(F)c1ccc(-c2csc(-c3ccccc3)n2)cc1` [Compound 3, 2-phenyl-4-(4-(trifluoromethyl)phenyl)thiazole], for which the EC50 was > 1000 nM.

For `FC(F)(F)c1ccc(-c2csc(-c3cccc(C(F)(F)F)c3)n2)cc1` [Compound 4, 2-(3-(trifluoromethyl)phenyl)-4-(4-(trifluoromethyl)phenyl)thiazole], the EC50 was > 1000 nM.

As to `FC(F)(F)c1ccc(-c2csc(-c3cc(C(F)(F)F)cc(C(F)(F)F)c3)n2)cc1` [Compound 7, 2-(3,5-bis(trifluoromethyl)phenyl)-4-(4-(trifluoromethyl)phenyl)thiazole], the “TLR1/2 activation activity EC50” value is “NA[†]”.

In the case of `Oc1cc(C(F)(F)F)ccc1-c1csc(-c2ccccc2)n1` [Compound 13, 2-(2-phenylthiazol-4-yl)-5-(trifluoromethyl)phenol], the “TLR1/2 activation activity EC50” value was “NA[†]”.

For `Oc1cc(C(F)(F)F)ccc1-c1csc(-c2cccc(C(F)(F)F)c2)n1` [Compound 14, 5-(trifluoromethyl)-2-(2-(3-(trifluoromethyl)phenyl)thiazol-4-yl)phenol], the “TLR1/2 activation activity EC50” value is “NA[†]”.

Consider `Oc1cc(C(F)(F)F)ccc1-c1csc(-c2cc(C(F)(F)F)cc(C(F)(F)F)c2)n1` [Compound 17, 2-(2-(3,5-bis(trifluoromethyl)phenyl)thiazol-4-yl)-5-(trifluoromethyl)phenol], for which the “TLR1/2 activation activity EC50” value was “NA[†]”.

As to `CNc1ccc([N+](=O)[O-])cc1-n1cnc(-c2ccc(OC(F)(F)F)cc2O)c1` [Compound 21, 2-(1-(2-(methylamino)-5-nitrophenyl)-1H-imidazol-4-yl)-5-(trifluoromethoxy)phenol], the EC50 is 24.9 ± 6.15 nM.

Take `CNc1ccc([N+](=O)[O-])cc1-n1cnc(-c2ccc(C(F)(F)F)cc2O)c1` [Compound 22, 2-(1-(2-(methylamino)-5-nitrophenyl)-1H-imidazol-4-yl)-5-(trifluoromethyl)phenol]: a half-maximal effect (EC50) was put at 4.88 ± 0.79 nM.

Take `CNc1ccc(S(C)(=O)=O)cc1-n1cnc(-c2ccc(C(F)(F)F)cc2O)c1` [Compound 23, 2-(1-(2-(methylamino)-5-(methylsulfonyl)phenyl)-1H-imidazol-4-yl)-5-(trifluoromethyl)phenol]: the EC50 is 5.14 ± 0.07 nM.

The molecule `CNc1ccc(C(=O)OC)cc1-n1cnc(-c2ccc(C(F)(F)F)cc2O)c1` [Compound 24, Methyl 3-(4-(2-hydroxy-4-(trifluoromethyl)phenyl)-1H-imidazol-1-yl)-4-(methylamino)benzoate] displayed an EC50 of 432.86 ± 0.05 nM.

In turn, `CNC(=O)c1ccc(NC)c(-n2cnc(-c3ccc(C(F)(F)F)cc3O)c2)c1` [Compound 25, 3-(4-(2-hydroxy-4-(trifluoromethyl)phenyl)-1H-imidazol-1-yl)-N-methyl-4-(methylamino)benzamide] returned a half-maximal effective concentration (EC50) of 45.6 ± 3.15 nM.

On to `CNc1c(Cl)cc([N+](=O)[O-])cc1-n1cnc(-c2ccc(C(F)(F)F)cc2O)c1` [Compound 26, 2-(1-(3-chloro-2-(methylamino)-5-nitrophenyl)-1H-imidazol-4-yl)-5-(trifluoromethyl)phenol], for which the midpoint of the response, the EC50, lay at 192 ± 17.2 nM.

With `CNc1c(Cl)cc([N+](=O)[O-])cc1-n1cnc(-c2ccc(C#N)cc2)c1` [Compound 27, 4-(1-(3-chloro-2-(methylamino)-5-nitrophenyl)-1H-imidazol-4-yl)benzonitrile], the EC50 is > 1000 nM.

On to `CNc1ccc([N+](=O)[O-])cc1-n1cnc(-c2ccc(C(F)(F)F)cc2OC)c1` [Compound 28, 2-(4-(2-methoxy-4-(trifluoromethyl)phenyl)-1H-imidazol-1-yl)-N-methyl-4-nitroaniline], for which the EC50 worked out at 92.3 ± 12.3 nM.

For the molecule `CCOc1cc(C(F)(F)F)ccc1-c1cn(-c2cc([N+](=O)[O-])ccc2NC)cn1` [Compound 29, 2-(4-(2-ethoxy-4-(trifluoromethyl)phenyl)-1H-imidazol-1-yl)-N-methyl-4-nitroaniline], the EC50 is > 1000 nM.

Turning to `CNc1ccc([N+](=O)[O-])cc1-n1cnc(-c2ccc(C(F)(F)F)cc2OCc2ccccc2)c1` [Compound 30, 2-(4-(2-(benzyloxy)-4-(trifluoromethyl)phenyl)-1H-imidazol-1-yl)-N-methyl-4-nitroaniline], the EC50 is > 1000 nM.

Regarding `CNc1ccc([N+](=O)[O-])cc1-n1cnc(-c2ccc(C(F)(F)F)cc2OCCBr)c1` [Compound 31, 2-(4-(2-(2-bromoethoxy)-4-(trifluoromethyl)phenyl)-1H-imidazol-1-yl)-N-methyl-4-nitroaniline], the EC50 is > 1000 nM.

Regarding `CNc1ccc([N+](=O)[O-])cc1-n1cnc(-c2ccc(C(F)(F)F)cc2OCCCBr)c1` [Compound 32, 2-(4-(2-(3-bromopropoxy)-4-(trifluoromethyl)phenyl)-1H-imidazol-1-yl)-N-methyl-4-nitroaniline], the EC50 is > 1000 nM.

Regarding `CNc1ccc([N+](=O)[O-])cc1-n1cnc(-c2ccc(C(F)(F)F)cc2OCCOCCO)c1` [Compound 34, 2-(2-(2-(1-(2-(methylamino)-5-nitrophenyl)-1H-imidazol-4-yl)-5-(trifluoromethyl)phenoxy)ethoxy)ethanol], the EC50 is > 1000 nM.

`CNc1ccc([N+](=O)[O-])cc1-n1cnc(-c2ccc(C(F)(F)F)cc2OC(C)=O)c1` [Compound 35, (1-(2-(methylamino)-5-nitrophenyl)-1H-imidazol-4-yl)-5-(trifluoromethyl)phenyl acetate] returned an EC50 of 18.8 ± 3.65 nM.

As to `CCCCCCCC(=O)Oc1cc(C(F)(F)F)ccc1-c1cn(-c2cc([N+](=O)[O-])ccc2NC)cn1` [Compound 36, 2-(1-(2-(methylamino)-5-nitrophenyl)-1H-imidazol-4-yl)-5-(trifluoromethyl)phenyl octanoate], the EC50 was determined as 56.3 ± 7.31 nM.

Molecule `CCCCCCCCCCCC(=O)Oc1cc(C(F)(F)F)ccc1-c1cn(-c2cc([N+](=O)[O-])ccc2NC)cn1` [Compound 37, 2-(1-(2-(methylamino)-5-nitrophenyl)-1H-imidazol-4-yl)-5-(trifluoromethyl)phenyl dodecanoate] displayed an EC50 of 113 ± 12.7 nM.

`CNc1ccc([N+](=O)[O-])cc1-n1cnc(-c2ccc(C(F)(F)F)cc2OC(=O)c2ccccc2)c1` [Compound 38, 2-(1-(2-(methylamino)-5-nitrophenyl)-1H-imidazol-4-yl)-5-(trifluoromethyl)phenyl benzoate] registered an EC50 of 16.9 ± 2.79 nM.

Molecule `CNc1ccc([N+](=O)[O-])cc1-n1cnc(-c2ccc(C(F)(F)F)cc2OC(=O)/C=C/c2ccccc2)c1` [Compound 39, (1-(2-(methylamino)-5-nitrophenyl)-1H-imidazol-4-yl)-5-(trifluoromethyl)phenyl cinnamate] registered an EC50 of 12 ± 2.67 nM.

In the case of `CNc1ccc([N+](=O)[O-])cc1-n1cnc(-c2ccc(C(F)(F)F)cc2OCCOCCOCCI)c1` [Compound 41, 2-(4-(2-(2-(2-(2-iodoethoxy)ethoxy)ethoxy)-4-(trifluoromethyl)phenyl)-1H-imidazole-1-yl)-N-methyl-4-nitroaniline], the EC50 was > 1000 nM.

Consider `CNc1ccc([N+](=O)[O-])cc1-n1cnc(-c2ccc(C(F)(F)F)cc2OCC(N)=O)c1` [Compound 42, (2-(1-(2-(methylamino)-5-nitrophenyl)-1H-imidazo-4-yl)-5-(trifluoromethyl)phenoxy)acetamide], for which the concentration giving a half-maximal response (EC50) was > 1000 nM.

Consider `CNc1ccc([N+](=O)[O-])cc1-n1cnc(-c2ccc(C(F)(F)F)cc2OCCNC(=O)CCCC[C@@H]2SC[C@@H]3NC(=O)N[C@@H]32)c1` [Compound 44, N-(2-(2-(1-(2-(methylamino)-5-nitrophenyl)-1H-imidazol-4-yl)-5-(trifluoromethyl)phenoxyl)ethyl)-5-((3AS,4S,6AR)-2-oxohexahydro-1H-thieno[3,4-d]imidazol-4-yl)pentanamide], for which the EC50 was determined as 764 ± 10.2 nM.

The assay is the same for the next values; noted with them: even at a low concentration (15 nM).
With `CNc1ccc([N+](=O)[O-])cc1-n1cnc(-c2ccc(C(F)(F)F)cc2O)c1` [Compound 22, 2-(1-(2-(methylamino)-5-nitrophenyl)-1H-imidazol-4-yl)-5-(trifluoromethyl)phenol], the “signal intensity of TLR1/2 alkaline phosphatase (SEAP)” value is given as “significantly activate”.
